Assay results as given in patent US10206906B2, “Synergistic combination of a phenolic-rich maple syrup extract and an antibiotic” (priority 2015, dated 2019).

What was measured:
E. coli CFT073 = test: Checkerboard microdilution assay (growth inhibition synergy); format: cell-based, Escherichia coli
Protocol: The checkerboard microdilution assay is used for evaluation of in vitro antimicrobial synergy between two compounds (i.e., antibiotic/PRMSE, antibiotic/pure phenolic compound, and pure phenolic compounds with each other). Two-fold serial dilutions are prepared in MHB-II for each of the two compounds under study. The serial dilutions are then loaded into 96 well plates to achieve combinations having different concentrations of each of the two compounds. Each well is subsequently inoculated with 10^6 CFU mL^−1 of the desired bacterial strain and incubated at 37° C. for 18 h under static conditions. The Fractional Inhibitory Concentration Index (FICI) for each combination is calculated by using the following formula: FICcomponent 1=MICcomponent 1, in combination/MICcomponent 1,alone FICI=FICcomponent 1+FICcomponent 2
The FICIs are interpreted as follows: FICI of […] (synergy); 0.5<FICI ≤1 (no interaction/indifference); FICI of >4 (antagonism).

E. coli CFT073 biofilm = test: Biofilm formation, microtitre plate crystal violet assay; format: cell-based, Escherichia coli; conditions: p<0.05
Protocol: Biofilm formation is quantified using the standard microtitre plate model. […] Aliquots (100 μL) of these cultures are transferred into the wells of polystyrene, flat bottom, non-treated 96 well plates (Falcon™, Corning™), in triplicate. For all assays, biofilms are allowed to develop for 16 h at 37° C. under static conditions, after which OD600 values are recorded, the spent broth is decanted from the wells, and the wells are gently rinsed three times with DI water. The washed biofilm is stained with crystal violet (CV). For CV stain assay, 100 μL of 0.1% (w/v) CV is loaded in each well and the plates are incubated for 15 min under static conditions at room temperature. The wells are subsequently rinsed with DI water to remove excess dye and the CV adsorbed to the biomass in each well is solubilized in 100 μL of absolute ethanol for 10 min. The solubilized CV is then quantified (as OD570) using a microplate reader. Control experiments are performed with cell-free broth to adjust for the background signal.

[1] = test system: outer membrane of E. coli CFT073; test: Outer membrane permeabilization, NPN uptake assay; format: cell-based, Escherichia coli; conditions: sub-MIC; concentration giving maximal increase in NPN uptake
Protocol: The cells are harvested, washed with 5 mM HEPES buffer (pH 7.2), and resuspended in the same volume (10 mL) of 5 mM HEPES buffer (pH 7.2) containing 1 mM N-ethylmaleimide (NEM, Sigma-Aldrich Canada). Aliquots (1 mL) are mixed with NPN to a final concentration of 10 μM (in cell suspension) and fluorescence is measured using the microplate reader (ex/em 350/420 nm).

[2] = test system: proton motive force-driven multidrug efflux pump of P. aeruginosa PA14; test: Ethidium bromide (EtBr) efflux assay; format: cell-based, Pseudomonas aeruginosa; conditions: PRMSE, catechol at 0.25 times the MIC; CCCP 100 μM; untreated cells 30.9
Protocol: (§1) An overnight grown culture of each strain is diluted 1:100 using MHB-II broth to a final volume of 10 mL and grown to an OD600 of 0.8-1.0 (at 37° C., 150 rpm). […] The tubes are incubated for 1 h (37° C., 150 rpm). The inoculum is then adjusted to 0.4 OD600 with MHB-II broth containing 5 μM EtBr and 2 mL aliquots of this mixture are pelleted (5000×g, 10 min at 4° C.). The pellets are incubated on ice immediately, resuspended in 1 mL of MHB-II, and aliquoted (200 μL) into a polystyrene 96 well black, clear-bottom plate (Corning™, Fisher Scientific, ON, Canada). EtBr efflux from the cells is monitored at room temperature using the microplate reader (ex/em 530/600 nm). Readings are taken at 5 min intervals for 1 h to monitor efflux pump activity. The background fluorescence of the medium is subtracted from all measurements and the assay is repeated independently in triplicate.

[3] = test system: proton motive force-driven multidrug efflux pump of P. aeruginosa PAO1; test: Ethidium bromide (EtBr) efflux assay; format: cell-based, Pseudomonas aeruginosa; conditions: PRMSE, catechol at 0.25 times the MIC; CCCP 100 μM; untreated cells 37.6
Protocol: as §1

[4] = test system: cell membrane of E. coli CFT073; test: BacLight membrane integrity assay; format: cell-based, Escherichia coli; conditions: PRMSE, catechol at 4 × MIC for 10 min; CTAB 10 μM; untreated = 100
Protocol: The BacLight kit (L-13152, Invitrogen™, Life Technologies Inc., Canada) is used to assess cell membrane damage. Overnight bacterial cultures are diluted 1:40 in fresh MHBII broth to a final volume of 5 mL, grown to an OD600 of 0.5-0.6, washed with filter-sterilized 10 mM phosphate buffered saline (PBS, pH 7.0) and resuspended in 1/10 of the original volume. […] Cultures are incubated at room temperature (21±2° C.) on a tube rocker for 10 min. At the end of the incubation period, an aliquot is taken for CFU counts and the remaining suspension is washed with 10 mM PBS and resuspended to an OD600) of 0.3. An aliquot (100 μL) of each bacterial suspension is removed and added to a 96-well, black, clear-bottom plate (Corning™, Fisher Scientific, ON, Canada) along with an equal volume of the BacLight™ reagent (2× stock solution, L13152, Invitrogen™, Life Technologies Inc., Canada) and the plates are incubated for 10 min at room temperature in the dark. At the end of the incubation period, fluorescence intensity is recorded for both kit components, SYTO-9 (ex/em 485/530 nm) and propidium iodide (ex/em 485/645 nm), using the microplate reader. Fluorescence readings from samples are normalized to the values obtained from untreated control to determine the ratio of membrane compromised cells to cells with intact membrane. […]

Oc1ccccc1O [catechol, 1,2-dihydroxybenzene]
FIC of ciprofloxacin (E. coli CFT073; ciprofloxacin in combination with the labelled phenolic constituent): 0.25 | FICI, gallic acid (E. coli CFT073; labelled constituent + gallic acid, * = synergistic): 0.25* | FIC, gallic acid (E. coli CFT073; labelled constituent combined with gallic acid): 0.13 | FIC of compound (E. coli CFT073; labelled phenolic constituent in combination with ciprofloxacin): 0.25 | inhibition of monoculture biofilm formation (OD570/OD600) (E. coli CFT073 biofilm; substance alone at sub-lethal concentrations, 16 h): significant inhibitory effects | inhibitory effect on biofilm formation, with ciprofloxacin (E. coli CFT073 biofilm; with ciprofloxacin, both at sub-lethal concentrations): significant inhibitory effects | Minimum permeabilization concentration (NPN assay) [1]: 0.06 mg/mL | Efflux pump activity [2]: 29.9% | % EtBr efflux [3]: 35.8% | % cells with uncompromised membrane (BacLight assay) [4]: 68%
